# Measured values: PubChem BioAssay AID2060887 (Molecular Pharmacology Branch, DTP, NCI, 2025)
# Values joined by “and” are separate entries in the source; they are usually repeats but may differ in a detail not shown here. Equal entries are not always repeated.
# System: 782815-120-R-J1-PDC complex spheroid viability
# Test: Anticancer human tumor 782815-120-R-J1-PDC patient-derived colon adenocarcinoma cell line growth inhibition [RAS]
# Settings: for viability, T/C: stronger effect = lower value
# How it was run: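 Agents were tested in combination matrices in half-log decrements from a top concentration at or near clinical Cmax (10 microM if undetermined). Targets were multi-cell spheroids of tumour lines plus HUVEC and MSC stromal cells.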
# [1] = curve of first compound, second compound 0.0316 µM
# [2] = curve of first compound, second compound 0.1 µM
# [3] = curve of first compound, second compound 0.316 µM
# [4] = curve of first compound, second compound 1 µM
# [5] = second compound 0.0316 µM, first compound 0.00316 µM
# [6] = second compound 0.0316 µM, first compound 0.01 µM
# [7] = second compound 0.0316 µM, first compound 0.0316 µM
# [8] = second compound 0.0316 µM, first compound 0.1 µM
# [9] = second compound 0.0316 µM, first compound 0.316 µM
# [10] = second compound 0.0316 µM, first compound 1 µM
# [11] = second compound 0.1 µM, first compound 0.00316 µM
# [12] = second compound 0.1 µM, first compound 0.01 µM
# [13] = second compound 0.1 µM, first compound 0.0316 µM
# [14] = second compound 0.1 µM, first compound 0.1 µM
# [15] = second compound 0.1 µM, first compound 0.316 µM
# [16] = second compound 0.1 µM, first compound 1 µM
# [17] = second compound 0.316 µM, first compound 0.00316 µM
# [18] = second compound 0.316 µM, first compound 0.01 µM
# [19] = second compound 0.316 µM, first compound 0.0316 µM
# [20] = second compound 0.316 µM, first compound 0.1 µM
# [21] = second compound 0.316 µM, first compound 0.316 µM
# [22] = second compound 0.316 µM, first compound 1 µM
# [23] = second compound 1 µM, first compound 0.00316 µM
# [24] = second compound 1 µM, first compound 0.01 µM
# [25] = second compound 1 µM, first compound 0.0316 µM
# [26] = second compound 1 µM, first compound 0.1 µM
# [27] = second compound 1 µM, first compound 0.316 µM
# [28] = second compound 1 µM, first compound 1 µM
# 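Note: spheroids exposed to compounds for 7 days before reading.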
# 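Throughout, for viability, T/C: 100% = DMSO vehicle control viability.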
compound,measurement,setting,value
Nc1ccn(C2OC(CO)C(O)C2(F)F)c(=O)n1 (configuration not stated) + C#Cc1c(F)ccc2cc(O)cc(-c3ncc4c(N5CC6CCC(C5)N6)nc(OCC56CCCN5CC(F)C6)nc4c3F)c12,IC50,[1],94.2 nM
same,IC50,[2],73.9 nM
same,IC50,[3],85.2 nM
same,IC50,[4],71.4 nM
same,IC50,"curve of first compound, second compound 3.16 µM",85.8 nM
same,IC50,"curve of first compound, second compound 10 µM",62.7 nM
same,"viability, T/C",[5],103%
same,"viability, T/C",[6],92.8%
same,"viability, T/C",[7],64.8%
same,"viability, T/C",[8],54%
same,"viability, T/C",[9],31.3%
same,"viability, T/C",[10],28.6%
same,"viability, T/C",[11],101%
same,"viability, T/C",[12],91.1%
same,"viability, T/C",[13],62.3%
same,"viability, T/C",[14],47.8%
same,"viability, T/C",[15],29.6%
same,"viability, T/C",[16],26.3%
same,"viability, T/C",[17],97.8%
same,"viability, T/C",[18],92.2%
same,"viability, T/C",[19],58.7%
same,"viability, T/C",[20],50.2%
same,"viability, T/C",[21],37.1%
same,"viability, T/C",[22],25.3%
same,"viability, T/C",[23],97.9%
same,"viability, T/C",[24],81.9%
same,"viability, T/C",[25],60.6%
same,"viability, T/C",[26],43.5%
same,"viability, T/C",[27],38.1%
same,"viability, T/C",[28],26.7%
same,"viability, T/C","second compound 3.16 µM, first compound 0.00316 µM",96.8%
same,"viability, T/C","second compound 3.16 µM, first compound 0.01 µM",89.7%
same,"viability, T/C","second compound 3.16 µM, first compound 0.0316 µM",63.1%
same,"viability, T/C","second compound 3.16 µM, first compound 0.1 µM",49%
same,"viability, T/C","second compound 3.16 µM, first compound 0.316 µM",36.2%
same,"viability, T/C","second compound 3.16 µM, first compound 1 µM",28.1%
same,"viability, T/C","second compound 10 µM, first compound 0.00316 µM",101%
same,"viability, T/C","second compound 10 µM, first compound 0.01 µM",95.2%
same,"viability, T/C","second compound 10 µM, first compound 0.0316 µM",61.9%
same,"viability, T/C","second compound 10 µM, first compound 0.1 µM",42%
same,"viability, T/C","second compound 10 µM, first compound 0.316 µM",35.6%
same,"viability, T/C","second compound 10 µM, first compound 1 µM",27.1%
CC1(C)CCC(Nc2ncc(C(F)(F)F)c(-c3c[nH]c4c(P(C)(C)=O)c(C#N)ccc34)n2)CN1 (configuration not stated),"viability, T/C",compound 0.000949 µM,107% [middle of 4 runs]
same,"viability, T/C",compound 0.003 µM,85% [middle of 4 runs]
same,"viability, T/C",compound 0.03 µM,65.3% [middle of 4 runs]
same,"viability, T/C",compound 0.0949 µM,59.4% [middle of 4 runs]
same,"viability, T/C",compound 0.3 µM,57.8% [middle of 4 runs]
same,IC50,curve of compound,> 300 nM and 76.6 nM and 223 nM
CCN1CCN(Cc2ccc(Nc3ncc(F)c(-c4cc(F)c5nc(C)n(C(C)C)c5c4)n3)nc2)CC1,"viability, T/C",compound 0.00316 µM,102% [middle of 4 runs]
same,"viability, T/C",compound 0.01 µM,99.6% [middle of 4 runs]
same,"viability, T/C",compound 0.0316 µM,93.5% and 96.4% and 101% (2×)
same,"viability, T/C",compound 0.1 µM,100% [middle of 4 runs]
same,"viability, T/C",compound 0.316 µM,113% [middle of 4 runs]
same,"viability, T/C",compound 1 µM,125% [middle of 4 runs]
same,IC50,curve of compound,> 1000 nM
O=C(c1ccc(F)c(F)c1Nc1ccc(I)cc1F)N1CC(O)([C@@H]2CCCCN2)C1 + C=CC(=O)N1CCN(c2nc(OCC3CCCN3C)nc3c(F)c(-c4nc(N)cc(C)c4C(F)(F)F)c(Cl)cc23)C(C)C1,IC50,"curve of first compound, second compound 0.00316 µM",74.5 nM
same,IC50,"curve of first compound, second compound 0.01 µM",67.8 nM
same,IC50,[1],67.5 nM
same,IC50,[2],100 nM
same,IC50,[3],83.8 nM
same,IC50,[4],82.1 nM
same,"viability, T/C","second compound 0.00316 µM, first compound 0.00316 µM",91.2%
same,"viability, T/C","second compound 0.00316 µM, first compound 0.01 µM",87.7%
same,"viability, T/C","second compound 0.00316 µM, first compound 0.0316 µM",64.6%
same,"viability, T/C","second compound 0.00316 µM, first compound 0.1 µM",44.3%
same,"viability, T/C","second compound 0.00316 µM, first compound 0.316 µM",21.8%
same,"viability, T/C","second compound 0.00316 µM, first compound 1 µM",3.64%
same,"viability, T/C","second compound 0.01 µM, first compound 0.00316 µM",93.1%
same,"viability, T/C","second compound 0.01 µM, first compound 0.01 µM",86.5%
same,"viability, T/C","second compound 0.01 µM, first compound 0.0316 µM",64.6%
same,"viability, T/C","second compound 0.01 µM, first compound 0.1 µM",40.9%
same,"viability, T/C","second compound 0.01 µM, first compound 0.316 µM",21.7%
same,"viability, T/C","second compound 0.01 µM, first compound 1 µM",4.13%
same,"viability, T/C",[5],99.3%
same,"viability, T/C",[6],79.5%
same,"viability, T/C",[7],64.2%
same,"viability, T/C",[8],46.3%
same,"viability, T/C",[9],19%
same,"viability, T/C",[10],4.19%
same,"viability, T/C",[11],84.1%
same,"viability, T/C",[12],90.1%
same,"viability, T/C",[13],68.3%
same,"viability, T/C",[14],52.4%
same,"viability, T/C",[15],20.7%
same,"viability, T/C",[16],4.3%
same,"viability, T/C",[17],90.5%
same,"viability, T/C",[18],88.5%
same,"viability, T/C",[19],66.2%
same,"viability, T/C",[20],47.7%
same,"viability, T/C",[21],22%
same,"viability, T/C",[22],4.23%
same,"viability, T/C",[23],88.9%
same,"viability, T/C",[24],93.5%
same,"viability, T/C",[25],66.1%
same,"viability, T/C",[26],45.5%
same,"viability, T/C",[27],23.1%
same,"viability, T/C",[28],4.2%
